We go through 13 compounds from US6509163B1, “Methods of screening modulators of mammalian P2X7 purinergic receptors” (Glaxo Group Limited, priority 1997, dated 2003).

The inhibition is the share of the control response that was lost under treatment.

SMILES strings stand for the structures. Like-named read-outs stand apart in the source and are kept apart here.

What all share (assay type): cell-based
Assay [1] has as its target T1, P2X7 receptor (Rattus norvegicus, UniProt Q64663).
T1 construct: yielding a construct that encoded the entire P2X7 protein; expressed in transfected cells
T1 sequence (Q64663 1-595): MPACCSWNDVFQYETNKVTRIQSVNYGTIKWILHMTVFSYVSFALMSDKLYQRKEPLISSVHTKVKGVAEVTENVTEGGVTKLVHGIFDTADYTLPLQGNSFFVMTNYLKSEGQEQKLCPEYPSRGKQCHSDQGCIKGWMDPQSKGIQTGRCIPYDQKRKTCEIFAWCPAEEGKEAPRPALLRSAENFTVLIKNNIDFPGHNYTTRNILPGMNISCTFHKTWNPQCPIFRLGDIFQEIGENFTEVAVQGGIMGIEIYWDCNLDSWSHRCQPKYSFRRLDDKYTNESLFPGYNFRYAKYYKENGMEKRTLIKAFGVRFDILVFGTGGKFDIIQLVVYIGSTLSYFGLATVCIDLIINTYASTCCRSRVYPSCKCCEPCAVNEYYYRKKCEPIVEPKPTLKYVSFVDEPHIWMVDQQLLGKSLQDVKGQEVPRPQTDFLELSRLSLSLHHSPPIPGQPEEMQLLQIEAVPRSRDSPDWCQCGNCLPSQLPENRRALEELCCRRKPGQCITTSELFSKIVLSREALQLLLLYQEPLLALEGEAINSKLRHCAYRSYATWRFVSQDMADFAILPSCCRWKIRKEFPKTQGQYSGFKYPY
Kind of assay: Whole-cell recordings of agonist-evoked currents in HEK293 cells transfected with rat P2X7 cDNA (Example 2). To be noted: inward currents, brief application (0.5 to 2 s).

The target of assay [2] is T1, P2X7 receptor. The description is as above. To be noted: for EC50: read-out: EC50 (half-maximal concentration) for current; for agonist effect (evoking inward current): concentration 300 to 1000 μM. Here is the method:
(§1) Whole-cell recordings were obtained at room temperature from HEK293 cells transiently or stably transfected with P2X7 cDNA, from HEK293 cells transiently transfected with P2X7ΔC cDNA, and from J774A.1 cells (American Type Culture Collection, Rockville, Md.). Agonist were applied for periods of 1 to 3 s by a fast-flow U-tube delivery system (Fenwick et al, J. Physiol. (London) 331:577 (1982)). The internal pipette solution was 140 mM cesium-aspartate or potassium-aspartate, 20 mM NaCl, 10 mM EGTA, and 5 mM Hepes: normal external solution was 145 mM NaCl, 2 mM KCl, 2 mM CaCl2, 1 mM MgCl2, 10 mM Hepes, and 12 mM glucose. Low divalent external solution was nominally magnesium-free with 0.3 mM CaCl2. For cells expressing P2X7 receptors and J774 cells, concentration-response curves were constructed in low divalent solution by recording currents in response to 1-s applications of agonist at 8-min intervals with normal external solution present for 6 min before each application. This protocol was necessary to prevent the development of sustained inward currents. Lipofectin was used for transfection (Buell et al, EMBO J. 15:55 (1996)).
Reversal potentals (Erev) were obtained by application of ATP (300 μM) or BzATP (30 μM) while the membrane was held at various potentals or by application of voltage ramps from −120 to 30 or 50 mV. Permeability ratios from (Erev) were calculated by first computing α (=Pna/PK, where P is permeability) for internal (i) and external (o) concentrations [Na]i=20 mM, [Na]o=145 mM, [Ko]=0 mM, and [K]i=140 mM from α={[145/exp(Erev)F/RT −20]}/140 (where F is the Faraday, R is the gas constant, and T is the absolute temperature). Other PK/PNa values, when [X]o=145 mM, [Na]i=20 mM, [K]i=140 mM, and [Na]o=[K]o=[X]i=0 mM, were computed from PK/PNa={[exp (ErevF/RT) (20=140α)}/145. In order of size (FIG. 3C), X was cesium, methylamine, tris(hydroxymethyl)-aminomethane, tetraethylammonium, and N-methyl-D-glucamine. The internal solution also contained 10 mM EGTA and 5 mM Hepes. External solutions also contained 10 mM glucose and normal or low concentrations of divalent cations; pH was maintained at 7.3 with HCl, histidine, or Hepes as required, and the osmolarity of all solutions was 295 to 315.

Assay [3] deals with T2, hP2X7 receptor (Homo sapiens, UniProt Q99572).
T2 construct: a clone containing the complete open reading frame of the hP2X7 receptor was constructed; expressed in transfected cells; host or cells: HEK293 (transient), pcDNA3
T2 sequence (Q99572 1-595): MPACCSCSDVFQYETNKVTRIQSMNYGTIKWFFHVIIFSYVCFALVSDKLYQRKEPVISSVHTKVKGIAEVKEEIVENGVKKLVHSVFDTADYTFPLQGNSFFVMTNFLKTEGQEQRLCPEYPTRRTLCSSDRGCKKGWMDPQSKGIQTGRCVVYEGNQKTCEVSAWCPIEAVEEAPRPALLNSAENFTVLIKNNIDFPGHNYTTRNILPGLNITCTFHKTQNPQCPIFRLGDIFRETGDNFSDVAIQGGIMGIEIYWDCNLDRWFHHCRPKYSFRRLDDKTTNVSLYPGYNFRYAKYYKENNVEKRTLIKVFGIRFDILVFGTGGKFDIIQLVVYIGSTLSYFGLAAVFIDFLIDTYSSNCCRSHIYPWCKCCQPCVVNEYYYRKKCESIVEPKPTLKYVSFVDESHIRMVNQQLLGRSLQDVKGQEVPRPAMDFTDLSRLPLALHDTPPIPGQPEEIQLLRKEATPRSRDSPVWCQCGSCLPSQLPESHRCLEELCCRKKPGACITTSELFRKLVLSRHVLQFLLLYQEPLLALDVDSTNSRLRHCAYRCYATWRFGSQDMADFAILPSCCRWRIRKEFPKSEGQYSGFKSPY
In words: Whole-cell recordings in HEK293 cells transiently transfected with hP2X7 receptors (Example 3). How it is done: (§2) Cell culture. HEK293 cells were transiently transfected with cDNA (1 μg/ml) and lipofectin dissolved in Optimem (GIBCO) placed into petri dishes containing four coverslips onto which cells were plated at a density of about 8×10^4/coverslip. Cells were washed 5 h later and normal DMEM applied. Electrophysiological studies or dye uptake measurements were carried out 18-49 h later. For each set of transfections, parallel experiments were performed on HEK cells transfected with cDNA encoding both rP2X7 and hP2X7 receptors.
(§3) Electrophysiological experiments. Whole-cell recordings were made using the EPC9 patch-clamp amplifier and Pulse acquisition programs (HEKA, Lambrecht, Germany). Patch pipettes (5-7 MΩ) contained (mM) CsCl or NaCl 154, EGTA 10, HEPES 5. The normal extracellular solution contained (mM) NaCg 147, KCl2, CaCl2 2, MgCl2 1, HEPES 10 and glucose 12, and the “low divalent” solution had no magnesium and 0.3 mM CaCl2. Agonists were delivered by U-tube delivery system; antagonists, when applied, were present in both superfusion and U-tube. Experiments were carried out at room temperature.

The target of assay [4] is T3, rP2X7 receptor (Rattus norvegicus, UniProt Q64663).
T3 construct: yielding a construct that encoded the entire P2X7 protein; expressed in transfected cells
T3 sequence (Q64663 1-595): T1 sequence (Q64663 1-595)
In words: Whole-cell recordings in HEK293 cells transiently transfected with rP2X7 receptors (Example 3). Here is the method: as §2, §3

Assay [5] concerns J774 cells. Kind of assay: Whole-cell recordings of BzATP-evoked currents in J774 macrophage cells. As to conditions: three J774 cells; read-out: half-maximal inhibition of currents evoked by 30 μM BzATP. Here is the method: as §1
[6] abbreviates: vs 30 μM BzATP, n=3, read-out: concentration causing half-maximal inhibition of currents.
The mark [7] stands for this setting: percentage of value in 1 mM magnesium.

As to `CSc1nc(N)c2ncn([C@@H]3O[C@H](COP(=O)(O)OP(=O)(O)OP(=O)(O)O)[C@@H](O)[C@H]3O)c2n1` [2MeSATP], the “agonist order of potency” value in assay [1] is given as “BzATP>>ATP>2MeSATP>ATP-γ-S>>ADP”.
For the compound `Nc1ncnc2c1ncn2[C@@H]1O[C@H](COP(=O)(O)OP(=O)(O)O)[C@@H](O)[C@H]1O` [ADP], the “agonist order of potency” value in assay [1] was “BzATP>>ATP>2MeSATP>ATP-γ-S>>ADP”.
As for `Nc1ncnc2c1ncn2[C@@H]1O[C@H](COP(=O)(O)OP(=O)(O)OP(O)(O)=S)[C@@H](O)[C@H]1O` [ATP-γ-S], the “agonist order of potency” value in assay [1] is on record as “BzATP>>ATP>2MeSATP>ATP-γ-S>>ADP”.
Turning to `Nc1ncnc2c1ncn2[C@@H]1O[C@H](COP(=O)(O)OP(=O)(O)OP(=O)(O)O)[C@@H](O)[C@H]1O` [ATP], in assay [1], the “agonist order of potency” value was “BzATP>>ATP>2MeSATP>ATP-γ-S>>ADP”. In addition, the EC50 was found to be 115 ± 9 µM in assay [2] (normal solution (2 mM CaCl2, 1 mM MgCl2), n=4) and 85 ± 8 µM in assay [2] (zero magnesium, n=7). Besides, in assay [3], the “EC50 at hP2X7 relative to rP2X7 receptor (fold greater)” value was “about 10 fold”.
Consider `Nc1ncnc2c1ncn2[C@@H](C=O)O[C@@H](C=O)COP(=O)(O)OP(=O)(O)OP(=O)(O)O` [Oxidized ATP], for which, in assay [2] (100 μM, cells preincubated for 1 to 2 hours, n=5), the “block of currents evoked by 30 μM BzATP” value was “irreversibly blocked currents”.
Regarding `Cc1nc(N=Nc2ccc(S(=O)(=O)O)cc2S(=O)(=O)O)c(COP(=O)(O)O)c(C=O)c1O` [PPADS, pyridoxal 5-phosphate-6-azophenyl 2′4′-disulfonic acid], the IC50 stood at 51 ± 4 µM in assay [4] (setting [6]); 45 ± 8 µM in assay [2] (four HEK cells, read-out: half-maximal inhibition of currents evoked by 30 μM BzATP); 60 ± 9 µM in assay [5].
Regarding `O=c1ccn([C@@H]2O[C@H](COP(=O)(O)OP(=O)(O)OP(=O)(O)O)[C@@H](O)[C@H]2O)c(=O)[nH]1` [UTP], the “agonist effect (evoking inward current)” value in assay [2] is given as “ineffective”.
Consider `Nc1ncnc2c1ncn2[C@@H]1O[C@H](CO)[C@@H](O)[C@H]1O` [adenosine], for which the “agonist effect (evoking inward current)” value in assay [2] was “ineffective”.
As for `NC(N)=NC(=O)c1nc(Cl)c(N2CCCCCC2)nc1N` [hexamethylene amiloride], the “blocking current evoked by 30 μM BzATP” value in assay [2] (100 μM, n=6) is on record as “ineffective”.
For the compound `[Mg+2]` [magnesium], the IC50 in assay [4] (currents evoked by 30 μM BzATP, read-out: concentration of magnesium causing half-maximal inhibition of the current) amounted to 780 µM; in assay [3] (currents evoked by 300 μM BzATP, read-out: concentration of magnesium causing half-maximal inhibition of the current) it was 212 µM. Also, the “increase of currents on removal of external magnesium” value in assay [4] (setting [7]) was 420±84%; in assay [3] (setting [7]), 670±80%.
Regarding `Cc1ccc(C(=O)Nc2ccc(S(=O)(=O)O)c3cc(S(=O)(=O)O)cc(S(=O)(=O)O)c23)cc1NC(=O)c1cccc(NC(=O)Nc2cccc(C(=O)Nc3cc(C(=O)Nc4ccc(S(=O)(=O)O)c5cc(S(=O)(=O)O)cc(S(=O)(=O)O)c45)ccc3C)c2)c1` [suramin], in assay [4] (setting [6]), the IC50 is 78 ± 3 µM. Besides, in assay [2] (read-out: inhibition of currents evoked by 30 μM BzATP), the inhibition at 300 µM is 15 to 38%.
Turning to `Nc1ncnc2c1ncn2[C@@H]1O[C@H](COP(=O)(O)CP(=O)(O)OP(=O)(O)O)[C@@H](O)[C@H]1O` [αβ-methylene ATP], the “agonist effect (evoking inward current)” value in assay [2] is reported as “ineffective”.
Consider `Nc1ncnc2c1ncn2[C@@H]1O[C@H](COP(=O)(O)OP(=O)(O)CP(=O)(O)O)[C@@H](O)[C@H]1O` [βγ-methylene ATP], for which the “agonist effect (evoking inward current)” value in assay [2] is “ineffective”.
